One experiment concerns the target T1, human type 5 17β-hydroxysteroid dehydrogenase (Homo sapiens, UniProt P42330).
T1 construct: screen again a human placental λgt11 cDNA to get the full length cDNA clone; expressed in transfected cells; host or cells: human embryonal kidney 293 cells (pCMV / pCMV-neo vector)
T1 sequence (P42330 1-323): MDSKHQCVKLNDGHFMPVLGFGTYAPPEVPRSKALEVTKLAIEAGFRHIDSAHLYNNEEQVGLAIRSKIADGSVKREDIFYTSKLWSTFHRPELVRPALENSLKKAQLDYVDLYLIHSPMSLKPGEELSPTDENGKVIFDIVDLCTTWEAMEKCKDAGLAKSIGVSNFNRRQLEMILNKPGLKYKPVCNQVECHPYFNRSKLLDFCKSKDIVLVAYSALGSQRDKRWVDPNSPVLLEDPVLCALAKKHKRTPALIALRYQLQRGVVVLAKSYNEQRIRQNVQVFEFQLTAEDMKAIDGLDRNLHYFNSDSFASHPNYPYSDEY
As to the kind of experiment: Inhibition of human type 5 17β-HSD activity in transfected 293 cells. It counts as cell-based.
Details: not given
The method, boiled down:
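Human type 5 17β-HSD cDNA in a CMV-promoter vector, transfected by calcium phosphate (1 to 10 μg plasmid per 10^6 cells) into 293 cells grown in DMEM with 10% FBS at 37 °C.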
As for `CC(=O)O[C@]1(C(C)=O)CCC2C3C=C(C)C4=CC(=O)CC[C@]4(C)C3CC[C@@]21C` (some centres unmarked) [megestrol acetate, reference compound], the “inhibition of type 5 17β-hydroxysteroid dehydrogenase (in words)” value is recorded as “inhibit that type 5 enzyme”.

Staying with this experiment, now noted: Inhibition Type V 17β-HSD IC50, Table 4′.
A word on the IC50: it is the concentration needed to halve the response being measured. For the compound `COCCOc1cc2c(cc1C#N)C1CC[C@@]3(C)C(CC[C@@]34CCC(C)(C)C(=O)O4)C1CC2` (some centres unmarked) [EM-1396], the IC50 worked out at 13 nM. On the same count and under the same terms, in the case of `CC1(C)CC[C@@]2(CCC3C4CCc5cc(C(N)=O)ccc5C4CCC32C)OC1=O` (some centres unmarked) [EM-1404] it was 3.2 ± 1.5 nM.

Staying with this experiment, now noted: Table 4′; 3 · 10^−6.
Regarding `CC1(C)CCC2(CCC3C4CCc5cc(C(=O)OCc6ccccc6)ccc5C4CCC32C)OC1=O` (centres unmarked) [EM-1398], the “Inhibition Type V 17β-HSD % Inh. at 3 · 10^−6” value amounted to 89%.

Turning to `COCCOc1cc2c(cc1C(F)(F)F)[C@H]1CC[C@@]3(C)[C@@H](CC[C@@]34CCC(C)(C)C(=O)O4)[C@@H]1CC2` [EM-1438, 3-(2′-Methoxyethoxy)-2-trifluoromethyl-1,3,5(10)-estratrien-17(R)-spiro-2′-(5′,5′-dimethyl-6′-oxo)tetrahydropyran], the “Inhibition Type V 17β-HSD % Inh. at 3 · 10^−6” value was found to be 95.2%.

The same experiment, now with this note: Table 4′; 3 · 10^−7.
Take `CC1(C)CCC2(CCC3C4CCc5cc(C(=O)OCc6ccccc6)ccc5C4CCC32C)OC1=O` (centres unmarked) [EM-1398]: the “Inhibition Type V 17β-HSD % Inh. at 3 · 10^−7” value is listed as 70%.

On to `COCCOc1cc2c(cc1C(F)(F)F)[C@H]1CC[C@@]3(C)[C@@H](CC[C@@]34CCC(C)(C)C(=O)O4)[C@@H]1CC2` [EM-1438, 3-(2′-Methoxyethoxy)-2-trifluoromethyl-1,3,5(10)-estratrien-17(R)-spiro-2′-(5′,5′-dimethyl-6′-oxo)tetrahydropyran], for which the “Inhibition Type V 17β-HSD % Inh. at 3 · 10^−7” value came out at 90.6%.

Still in this experiment, the particulars now being: Table 4′; read-out: Inhibition Type V 17β-HSD IC50.
On to `CN(C)CCOc1ccc2c(c1)CCC1C2CCC2(C)C1CCC21CCC(C)(C)C(=O)O1` (centres unmarked) [EM-1389-CS], for which the IC50 is 25 nM.

For the compound `CC1(C)CCC2(CCC3C4CCc5cc(OCCN6CCCCC6)ccc5C4CCC32C)OC1=O` [EM-1390-CS, 3-(N-piperidyl-ethyl)-1,3,5(10)-estratrien-17(R)-spiro-2′-(5′,5′-dimethyl-6′-oxo)-tetrahydropyran], the IC50 was found to be 48 nM. In the case of `CC1(C)CCC2(CCC3C4CCc5c(cc(Cl)c(O)c5Cl)C4CCC32C)OC1=O` (centres unmarked) [EM-1391-CS], the IC50 came out at 19 nM. The same measure, in the same setting: for `CC1(C)CCC2(CCC3C4CCc5c(cc(Cl)c(OS(C)(=O)=O)c5Cl)C4CCC32C)OC1=O` (centres unmarked) [EM-1392-CS] the value was 19 nM. Consider `COCCOc1cc2c(cc1F)C1CCC3(C)C(CCC34CCC(C)(C)C(=O)O4)C1CC2` (centres unmarked) [EM-1393-CS], for which the IC50 was determined as 16 nM. Same read-out and setting: in the case of `COc1ccc2c(c1)C(=O)CC1C2CC[C@@]2(C)C1CC[C@@]21CCC(C)(C)C(=O)O1` (some centres unmarked) [EM-1394] it was 9 nM; in that of `CC1(C)CC[C@@]2(CCC3C4CCc5cc(C(=O)O)ccc5C4CC[C@@]32C)OC1=O` (stereo partly drawn) [EM-1401, 3-Carboxy-1,3,5(10)-estratrien-17(R)-spiro-2′-(5′,5′-dimethyl-6′-oxo)tetrahydropyran], 4 ± 1.5 nM. As to `COCCOc1cc2c(cc1C(=O)OC)C1CC[C@@]3(C)C(CC[C@@]34CCC(C)(C)C(=O)O4)C1CC2` (stereo partly drawn) [EM-1402-CS, 2-Carbomethoxy-3-(2″-methoxyethyloxy)-1,3,5(10)-estratrien 17(R)-spiro-2′-(5′,5′-dimethyl-6′-oxo)tetrahydropyran], the IC50 is 12 nM. For the compound `CN(C)C(=O)c1ccc2c(c1)CCC1C2CCC2(C)C1CCC21CCC(C)(C)C(=O)O1` (centres unmarked) [EM-1403], the IC50 amounted to 7.2 ± 1.6 nM. On to `COCCOc1cc2c(cc1C(=O)O)C1CCC3(C)C(CCC34CCC(C)(C)C(=O)O4)C1CC2` [EM-1405, 2-Carboxy-3-(2″-methoxyethyloxy)-1,3,5(10)-estratrien-17(R)-spiro-2′-(5′,5′-dimethyl-6′-oxo)tetrahydropyran], for which the IC50 was 23 nM. As to `CC1(C)CC[C@@]2(CCC3C4CCc5cc6oncc6cc5C4CC[C@@]32C)OC1=O` (stereo partly drawn) [EM-1407-CS, 1,3,5(10)-estratrien-(2,3-oximino)-17(R)-spiro-2′-(5′,5′-dimethyl-6′-oxo)tetrahydropyran], the IC50 came to 12 ± 3 nM. Regarding `COCCOc1ccc2c(c1)C(=O)CC1C2CCC2(C)C1CCC21CCC(C)(C)C(=O)O1` (centres unmarked) [EM-1408-CS], the IC50 was found to be 5.5 ± 1 nM. As to `COc1cc2c(cc1C(F)(F)F)C1CCC3(C)C(CCC34CCC(C)(C)C(=O)O4)C1CC2` [EM-1409, 3-Methoxy-2-trifluoromethyl-1,3,5(10)-estratrien-17(R)-spiro-2′-(5′,5′-dimethyl-6′-oxo)tetrahydropyran], the IC50 amounted to 170 ± 70 nM.

For the compound `COc1cc2c(cc1C)C1CCC3(C)C(CCC34CCC(C)(C)C(=O)O4)C1CC2` (centres unmarked) [EM-1412-CS], the IC50 was 54 nM. As to `COCCOc1cc2c(cc1C(=O)N(C)C)C1CCC3(C)C(CCC34CCC(C)(C)C(=O)O4)C1CC2` (centres unmarked) [EM-1413-CS], the IC50 amounted to 17 nM. Same read-out and setting: in the case of `COCCOc1cc2c(cc1C(N)=O)C1CC[C@@]3(C)C(CC[C@@]34CCC(C)(C)C(=O)O4)C1CC2` (stereo partly drawn) [EM-1424, 2-Carbamoyl-3-(2″-methoxyethyloxy)-1,3,5(10)-estratrien 17(R)-spiro-2′-(5′,5′-dimethyl-6′-oxo)tetrahydropyran] it was 9.5 nM; in that of `CC1(C)CCC2(CCC3C4CCc5cc(O)c(C#N)cc5C4CCC32C)OC1=O` (centres unmarked) [EM-01645], 4.5 ± 0.3 nM. For the compound `CC1(C)CCC2(CCC3C4CCc5cc(O)c(C(N)=O)cc5C4CCC32C)OC1=O` (centres unmarked) [EM-01660], the IC50 is 5.6 ± 0.4 nM. On to `CN(C)C(=O)c1cc2c(cc1O)CCC1C2CCC2(C)C1CCC21CCC(C)(C)C(=O)O1` (centres unmarked) [EM-01661-B], for which the IC50 turned out to be 19.2 ± 1 nM. As for `COC(=O)c1cc2c(cc1O)CCC1C2CCC2(C)C1CCC21CCC(C)(C)C(=O)O1` (centres unmarked) [EM-01662], the concentration for half-maximal inhibition (IC50) turned out to be 35 ± 5 nM. Take `CC12CCC3c4ccc(O)cc4CCC3C1CCC21CC=CC(=O)O1` [PB-132-140, 3-hydroxy-1,3,5(10)-estratrien-17(R)-spiro-2′-(4′,5′-dihydro-6′-oxo)pyran]: the IC50 was determined as 49 ± 5 nM. Take `CC1CC(=O)OC2(CCC3C4CCc5cc(O)ccc5C4CCC32C)C1` [PB-132-142, 3-Hydroxy-1,3,5(10)-estratrien-17(R)-spiro-2′-(4′-methyl-6′-oxo)tetrahydropyran]: the IC50 is 19 ± 1.5 nM. Take `COC(=O)C1CCC2(CCC3C4CCc5cc(O)ccc5C4CCC32C)OC1=O` [PB-132-146, 3-Hydroxy-1,3,5(10)-estratrien-17(R)-2′-(5′-methoxycarbonyl-6′-oxo)tetrahydropyran]: the IC50 worked out at 72 ± 3 nM. In the case of `C=CCC1CCC2(CCC3C4CCc5cc(O)ccc5C4CCC32C)OC1=O` [PB-132-152, 3-Hydroxy-1,3,5(10)-estratrien-17(R)-2′-(5′-allyl-6′-oxo)tetrahydropyran], the IC50 is 107 ± 9 nM.

The experiment is the same for the next values; noted with them: read-out: Inhibition Type V 17β-HSD IC50.
Turning to `CC(=O)O[C@]1(C(C)=O)CCC2C3C=C(C)C4=CC(=O)CC[C@]4(C)C3CC[C@@]21C` (some centres unmarked) [megestrol acetate, reference compound], the IC50 worked out at 17.4 ± 2.8 nM.

The record behind these values is patent US6541463B1, “Inhibitors of type 5 and type 3 17β-hydroxysteroid dehydrogenase and methods for their use” (Endorecherche, Inc., priority 1998, dated 2003).
